Active and inactive are the calls of the source.
Experiments:
[1] = target: Potassium voltage-gated channel subfamily KQT member 2 (Mus musculus) (UniProt Q9Z351); assay: Induction of mouse KCNQ2 expressed in HEK293 cells at -40 mV holding potential by whole-cell patch clamp assay relative to (+/-)-N-(1-(benzo[d][1,3]dioxol-5-yl)ethyl)-3-(2-chlorophenyl)acrylamide; format: cell-based
[2] = target: Potassium voltage-gated channel subfamily KQT member 2 (Mus musculus, UniProt Q9Z351); assay: Induction of mouse KCNQ2 expressed in HEK293 cells at -40 mV holding potential by whole-cell patch clamp assay; format: cell-based
Sequence of Potassium voltage-gated channel subfamily KQT member 2 (Q9Z351 whole entry): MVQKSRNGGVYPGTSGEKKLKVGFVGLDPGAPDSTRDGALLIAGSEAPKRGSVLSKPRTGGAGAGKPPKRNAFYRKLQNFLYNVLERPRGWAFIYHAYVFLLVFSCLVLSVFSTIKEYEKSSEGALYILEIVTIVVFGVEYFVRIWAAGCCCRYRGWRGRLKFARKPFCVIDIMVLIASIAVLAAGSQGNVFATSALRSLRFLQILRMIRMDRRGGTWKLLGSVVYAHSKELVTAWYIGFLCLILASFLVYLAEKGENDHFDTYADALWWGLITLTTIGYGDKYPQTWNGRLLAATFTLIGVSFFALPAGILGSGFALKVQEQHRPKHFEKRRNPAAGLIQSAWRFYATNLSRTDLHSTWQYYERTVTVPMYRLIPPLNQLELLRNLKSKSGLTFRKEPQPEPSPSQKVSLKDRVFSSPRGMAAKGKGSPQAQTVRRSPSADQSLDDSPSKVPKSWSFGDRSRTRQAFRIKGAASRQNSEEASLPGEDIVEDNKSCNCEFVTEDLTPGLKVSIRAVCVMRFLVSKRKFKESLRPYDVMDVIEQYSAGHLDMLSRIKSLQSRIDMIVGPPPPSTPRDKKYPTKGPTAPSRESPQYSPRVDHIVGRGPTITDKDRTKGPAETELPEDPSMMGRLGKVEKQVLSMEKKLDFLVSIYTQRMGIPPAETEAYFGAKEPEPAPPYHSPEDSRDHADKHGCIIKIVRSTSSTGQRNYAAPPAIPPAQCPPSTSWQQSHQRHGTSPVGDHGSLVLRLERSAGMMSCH

[3] = Drug uptake in Sprague-Dawley rat brain at 1 mg/kg, iv measured after 1 hr; format: ADME, organism-based; set-up: dose 1 mg/kg, route intravenous; details: read-out: Drug uptake
[4] = tested on: Rattus norvegicus; assay: Analgesic activity in Sprague-Dawley rat L5/L6 spinal nerve injury Chung model of neuropathic pain assessed as […] hair-induced paw withdrawal threshold at 10 mg/kg, iv measured after 15 mins relative to vehicle-treated control; format: functional, organism-based; set-up: dose 10 mg/kg
[5] = Drug uptake in Sprague-Dawley rat brain at 1 mg/kg, iv measured after 15 mins; format: ADME, organism-based; set-up: dose 1 mg/kg, route intravenous; details: read-out: Drug uptake
[6] = tested on: Rattus norvegicus; assay: Analgesic activity in rat assessed reduction formalin-induced initial pain response at 10 mg/kg, iv administered 2 mins before formalin challenge; format: functional, organism-based; set-up: dose 10 mg/kg
[7] = tested on: Rattus norvegicus; assay: Toxicity in Sprague-Dawley rat assessed as […] at 10 mg/kg, iv after 10 mins by rotorod test; format: organism-based; set-up: dose 10 mg/kg, route intravenous; details: in vivo
[8] = tested on: Rattus norvegicus; assay: Analgesic activity in rat assessed reduction formalin-induced second phase pain response at 10 mg/kg, iv administered 8 mins post formalin challenge; format: functional, organism-based; set-up: dose 10 mg/kg
[9] = tested on: Rattus norvegicus; assay: Analgesic activity in Sprague-Dawley rat L5/L6 spinal nerve injury Chung model of neuropathic pain assessed as […] hair-induced paw withdrawal threshold at 3 mg/kg, iv measured after 15 to 90 mins relative to vehicle-treated control; format: functional, organism-based; set-up: dose 3 mg/kg
[10] = target: Potassium voltage-gated channel subfamily KQT member 2 (Mus musculus) (UniProt Q9Z351); assay: Induction of mouse KCNQ2 expressed in HEK293 cells at -40 mV holding potential by whole-cell patch clamp assay relative to retigabine; format: cell-based
[11] = tested on: Rattus norvegicus; assay: Analgesic activity in STZ-induced diabetic neuropathy rat model assessed as prolongation of reversal of hypersensitivity time at 3 mg/kg, iv measured after 15 to 90 mins relative to vehicle-treated control; format: functional
[12] = tested on: Rattus norvegicus; assay: Analgesic activity in rat assessed reduction formalin-induced second phase pain response at 100 mg/kg, iv administered 8 mins post formalin challenge; format: functional, organism-based; set-up: dose 100 mg/kg
[13] = tested on: Rattus norvegicus; assay: Analgesic activity in rat assessed reduction formalin-induced initial pain response at 100 mg/kg, iv administered 2 mins before formalin challenge; format: functional, organism-based; set-up: dose 100 mg/kg
[14] = tested on: Rattus norvegicus; assay: Analgesic activity in Sprague-Dawley rat L5/L6 spinal nerve injury Chung model of neuropathic pain assessed as […] hair-induced paw withdrawal threshold at 100 mg/kg, iv measured after 15 to 90 mins relative to vehicle-treated control; format: functional, organism-based; set-up: dose 100 mg/kg

Sequence of Potassium voltage-gated channel subfamily KQT member 2 (Mus musculus) (Q9Z351 whole entry): as above

C[C@H](NC(=O)/C=C/c1ccccc1F)c1ccc2c(c1)N(CC1CC1)CCO2
Ratio [1]: 1.8

C[C@@H](NC(=O)/C=C/c1cc(F)ccc1F)c1cccc(Oc2ccncc2)c1
EC50 [2]: > 10000 nM

C[C@H](NC(=O)/C=C/c1ccccc1Cl)c1ccc2c(c1)OCO2
Ratio [1]: 1.1

C[C@H](NC(=O)/C=C/c1cc(F)ccc1F)c1cccc(Oc2ccncc2)c1
concentration at 1 h [3]: 42 nM | Ratio [1]: 2.9 | Activity [4]: Active | EC50 [2]: 0.9 nM | concentration at 0.25 h [5]: 160 nM

C[C@H](NC(=O)/C=C/c1ccccc1)c1cccc(N2CCOCC2)c1
Ratio [1]: 1.4

C[C@H](NC(=O)/C=C/c1ccccc1F)c1cccc(Oc2cccnc2)c1
concentration at 1 h [3]: 560 nM | Ratio [1]: 2.2 | Activity [4]: Active | Activity [6]: Active | Activity [7]: Non-toxic | Activity [8]: Active | EC50 [2]: 2.4 nM | Activity [9]: inactive | Efficacy [10]: 38% | Time [11]: 15 min | concentration at 0.25 h [5]: 2000 nM

CCOC(=O)Nc1ccc(NCc2ccc(F)cc2)cc1N
Ratio [1]: 1.6

C[C@@H](NC(=O)/C=C/c1ccccc1F)c1cccc(Oc2cccnc2)c1
EC50 [2]: > 10000 nM

NCC1(CC(=O)O)CCCCC1
Activity [12]: Active | Activity [13]: inactive | Activity [14]: Active

C[C@H](NC(=O)/C=C/c1ccccc1F)c1cccc(-c2ccc(F)nc2)c1
Ratio [1]: 0.85
